Two compounds from US6472166B1, “Method for determining the effects of a growth-altering agent on a microbial colony” (Wardlaw Partners LP, priority 2000, dated 2002) can be followed below.

Each structure is given as a SMILES string.

Assay type in all cases: cell-based
The test system of one assay is E. coli. The experiment in a line: Microcolony growth imaging of E. coli on Kirby-Bauer type growth medium. Conditions: 2 μg/ml, two-hour incubation, E. coli microcolonies, FIG. 2D. The protocol: (§1) FIGS. 2A-2D, 3A-3D, and 4A-4D show digital images of various microorganisms exposed to different growth-altering agents. Here again, the images contained in panels “A” and “B” of each FIGURE were taken immediately after inoculation, and the images contained in panels “C” and “D” of each FIGURE were taken after about two hours of incubation. None of the images in FIGS. 2A-2D, 3A-3D, and 4A-4D are enhanced by digital processing. The images contained in panels “B” and “D” of each FIGURES show regions of the growth medium that have been exposed to a growth-altering agent. The images contained in panels “A” and “C” of each FIGURE have not been exposed to a growth-altering agent and can be used as control reference areas.
The images contained in FIGS. 2A and 2B show regions of a Kirby-Bauer type growth medium immediately after inoculation with E. coli. The images contained in FIGS. 2C and 2D show the same regions after a two-hour incubation period. […] If it is desired to find the threshold of microbial sensitivity, such as is done to determine the minimum inhibitory concentration (MIC), then a series of separate regions each containing a certain concentration of the growth-altering agent may be used and the relative growth in each separate region evaluated. […]

In another assay the test system is E. faecalis. Put plainly: Microcolony growth imaging of E. faecalis on Kirby-Bauer type growth medium. Conditions: 2 μg/ml, two-hour incubation, E. faecalis microcolonies, FIG. 3D. The protocol: as §1
The images contained in FIGS. 3A and 3B show regions of a Kirby-Bauer type growth medium immediately after inoculation with E. faecalis. The images contained in FIGS. 3C and 3D show the same regions after a two-hour incubation period.

A further assay deals with E. faecium. The experiment in a line: Microcolony growth imaging of E. faecium on Kirby-Bauer type growth medium. Conditions: 2 μg/ml, two-hour incubation, E. faecium microcolonies, FIG. 4D. The protocol:
as §1
The images contained in FIGS. 4A and 4B show regions of a Kirby-Bauer type growth medium immediately after inoculation with E. faecium. The images contained in FIGS. 4C and 4D show the same regions after a two-hour incubation period.

As to `CO/N=C(\C(=O)N[C@@H]1C(=O)N2C(C(=O)O)=C(COC(C)=O)CS[C@H]12)c1csc(N)n1` [cefotaxime], the “microcolony perimeter/area ratio characteristic” value in the assay with E. coli is “increased perimeter/area ratio characteristic”.
Consider `CN[C@H](CC(C)C)C(=O)N[C@H]1C(=O)N[C@@H](CC(N)=O)C(=O)N[C@H]2C(=O)N[C@H]3C(=O)N[C@H](C(=O)N[C@H](C(=O)O)c4cc(O)cc(O)c4-c4cc3ccc4O)[C@H](O)c3ccc(c(Cl)c3)Oc3cc2cc(c3O[C@@H]2O[C@H](CO)[C@@H](O)[C@H](O)[C@H]2O[C@H]2C[C@](C)(N)[C@H](O)[C@H](C)O2)Oc2ccc(cc2Cl)[C@H]1O` [vancomycin], for which the microcolony growth entry is on record as “do not appear to exhibit any growth” with E. faecalis and “show detectable growth” with E. faecium.
